Test results as given in patent publication US20170334899A1, “AMINO-SUBSTITUTED ISOTHIAZOLES” (Bayer Pharma Aktiengesellschaft, priority 2014, published 2017).

Tests used:
[1] = test system: human cervical tumor cell line HeLa (ATCC CCL-2); assay: SAC-Formation - Nocodazole-Induced Assay; assay type: cell-based; conditions: Homo sapiens, HeLa, 24 h, HeLa cells, nocodazole 0.1 μg/ml together with test compound, decrease of mitotic cells (phospho-histone H3 Ser10)
Method in brief: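 HeLa cells, plated overnight, were treated 24 h at 37 °C with nocodazole (0.1 μg/ml final) plus test compound (0.005–20 μM, 0.5% DMSO) added at the same time. After fixation, anti-phospho-histone H3 Ser10 and Hoechst staining gave the mitotic cell fraction by imaging. Values came from four-parameter Hill fits.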

[2] = target: T1, catalytic domain of human Bub1 (amino acids 704-1085) (Homo sapiens, UniProt O43683); assay: Bub1 kinase assay (TR-FRET); assay type: biochemical; conditions: 10 μM ATP, avg, read-out: Bub1 avg (IC50 [mol/l])
T1 construct: catalytic domain of human Bub1 (amino acids 704-1085); His6 (N); made in house; host or cells: insect cells (Hi5)
Method in brief: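 Readout is the 665/620 nm TR-FRET ratio from anti-phosphoserine antibody, Eu-labelled anti-mouse IgG and streptavidin-XL665, scaled between no-enzyme and uninhibited controls. Reaction: 1 μM biotinylated peptide, 10 μM ATP, 60 min, 22 °C, after 15 min compound preincubation with His6-Bub1 (704-1085, insect-expressed, ~200 ng/ml).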

T1 sequence (O43683 704-1085): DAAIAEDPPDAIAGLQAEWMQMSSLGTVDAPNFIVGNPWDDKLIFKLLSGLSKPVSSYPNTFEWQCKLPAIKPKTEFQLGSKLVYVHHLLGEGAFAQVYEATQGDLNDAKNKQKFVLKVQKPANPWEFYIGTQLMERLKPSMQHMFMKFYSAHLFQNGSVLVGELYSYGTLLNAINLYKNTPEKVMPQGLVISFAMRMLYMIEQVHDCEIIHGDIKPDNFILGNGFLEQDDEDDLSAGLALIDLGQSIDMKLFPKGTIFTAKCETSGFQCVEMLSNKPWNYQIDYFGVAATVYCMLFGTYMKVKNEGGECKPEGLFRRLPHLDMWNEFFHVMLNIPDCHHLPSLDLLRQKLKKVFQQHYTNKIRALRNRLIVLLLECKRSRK

SMILES | IC50 [1] [nM] | IC50 [2] [nM]
Cc1nsc(Nc2cnc(C(F)(F)F)cn2)c1C(=O)Nc1ccc(OC2CCN(C(CF)CF)CC2)nc1 [Example 324, N-(6-{[1-(1,3-difluoropropan-2-yl)piperidin-4-yl]oxy}pyridin-3-yl)-3-methyl-5-{[5-(trifluoromethyl)pyrazin-2-yl]amino}-1,2-thiazole-4-carboxamide] | 71 | 19000
Cc1nsc(Nc2cnc(C(F)(F)F)cn2)c1C(=O)Nc1ccc(OC2CCCN(C(CF)CF)C2)nc1 (stereo not shown) [Example 333, N-(6-{[1-(1,3-difluoropropan-2-yl)piperidin-3-yl]oxy}pyridin-3-yl)-3-methyl-5-{[5-(trifluoromethyl)pyrazin-2-yl]amino}-1,2-thiazole-4-carboxamide] | 73 | ≥ 20000
Cc1nsc(Nc2cnc(C(F)(F)F)cn2)c1C(=O)Nc1ccc(OC2CCCN(CC(F)(F)F)C2)nc1 (stereo not shown) [Example 331, 3-methyl-N-(6-{[1-(2,2,2-trifluoroethyl)piperidin-3-yl]oxy}pyridin-3-yl)-5-{[5-(trifluoromethyl)pyrazin-2-yl]amino}-1,2-thiazole-4-carboxamide] | 6.2 | ≥ 20000
Cc1nsc(Nc2cnc(C(F)(F)F)cn2)c1C(=O)Nc1ccc(F)c(OC[C@@H]2CCCN(CC(F)F)C2)c1 [Example 341, N-(3-{[(3R)-1-(2,2-difluoroethyl)piperidin-3-yl]methoxy}-4-fluorophenyl)-3-methyl-5-{[5-(trifluoromethyl)pyrazin-2-yl]amino}-1,2-thiazole-4-carboxamide] | 27 | > 20000
Cc1nsc(Nc2cnc(C(F)(F)F)cn2)c1C(=O)Nc1ccc(CCC2CCN(CC(F)F)CC2)nc1 [Example 356, N-(6-{2-[1-(2,2-difluoroethyl)piperidin-4-yl]ethyl}pyridin-3-yl)-3-methyl-5-{[5-(trifluoromethyl)pyrazin-2-yl]amino}-1,2-thiazole-4-carboxamide] | 50 | > 20000

More lines, now with the values ahead:

IC50 [1] [nM] | IC50 [2] [nM] | SMILES
29 | > 20000 | Cc1nsc(Nc2cnc(C(F)(F)F)cn2)c1C(=O)Nc1ccc(N2CCN(CC(F)F)CC2)nc1 [Example 359, N-{6-[4-(2,2-difluoroethyl)piperazin-1-yl]pyridin-3-yl}-3-methyl-5-{[5-(trifluoromethyl)pyrazin-2-yl]amino}-1,2-thiazole-4-carboxamide]
31 | > 20000 | Cc1nsc(Nc2cnc(C(F)(F)F)cn2)c1C(=O)Nc1ccc(F)c(OC[C@H]2CCN(CC(F)F)C2)c1 [Example 397, N-(3-{[(3S)-1-(2,2-difluoroethyl)pyrrolidin-3-yl]methoxy}-4-fluorophenyl)-3-methyl-5-{[5-(trifluoromethyl)pyrazin-2-yl]amino}-1,2-thiazole-4-carboxamide]
24 | > 20000 | Cc1nsc(Nc2cnc(C(F)(F)F)cn2)c1C(=O)Nc1ccc(O[C@H]2CCN(CC(F)F)C2)nc1 [Example 382, N-(6-{[(3S)-1-(2,2-difluoroethyl)pyrrolidin-3-yl]oxy}pyridin-3-yl)-3-methyl-5-{[5-(trifluoromethyl)pyrazin-2-yl]amino}-1,2-thiazole-4-carboxamide]
